Data taken from PubChem BioAssay AID2060325 (Molecular Pharmacology Branch, DTP, NCI, 2025).
Values joined by “and” are separate entries in the source; they are usually repeats but may differ in a detail not shown here. Equal values may be shown once.

System: SK-OV-3 multi-cell spheroids, viability
Test: Anticancer human tumor SK-OV-3 cell line growth inhibition [IpAb];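 for viability, T/C: viability read after seven days of drug exposure; percent of DMSO vehicle control luminescence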
Details: for viability, T/C: stronger effect = lower value
Outline: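 Combinations with ipatasertib or abemaciclib were tested on tumour spheroids holding HUVEC (25%) and MSC (15%) alongside 60% malignant cells. Top concentration was at or near clinical Cmax (10 microM if undefined), descending in half-log steps.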

[1] = curve of first compound, second compound 0.1 µM
[2] = curve of first compound, second compound 0.316 µM
[3] = curve of first compound, second compound 1 µM
[4] = second compound 0.1 µM, first compound 0.0316 µM
[5] = second compound 0.1 µM, first compound 0.1 µM
[6] = second compound 0.316 µM, first compound 0.0316 µM
[7] = second compound 0.316 µM, first compound 0.1 µM
[8] = second compound 1 µM, first compound 0.0316 µM
[9] = second compound 1 µM, first compound 0.1 µM

**Q.** With CC(C)n1nc(-c2ccc3oc(N)nc3c2)c2c(N)ncnc21 as the compound, how does the viability, T/C (compound 0.000316 µM) read?
**A.** The viability, T/C was 90.3% and 86.6%.

**Q.** What about the viability, T/C (compound 0.001 µM) of the same compound?
**A.** The viability, T/C was 71.8% and 76.2%.

**Q.** And the viability, T/C (compound 0.00316 µM)?
**A.** The viability, T/C was 37.6% and 42.3%.

**Q.** And the viability, T/C (compound 0.01 µM)?
**A.** The viability, T/C was 19.2% and 21.4%.

**Q.** And the viability, T/C (compound 0.0316 µM)?
**A.** Its viability, T/C is 10.8% and 11.2%.

**Q.** What about the viability, T/C (compound 0.1 µM) of the same compound?
**A.** The viability, T/C was 7.02% and 7.25%.

**Q.** What about the IC50 (curve of compound) of the same compound?
**A.** The IC50 was 2.13 nM and 2.54 nM.

**Q.** Which IC50 [1] does the source give for CC(C)n1nc(-c2ccc3oc(N)nc3c2)c2c(N)ncnc21 + CC(C)NCC(C(=O)N1CCN(c2ncnc3c2C(C)CC3O)CC1)c1ccc(Cl)cc1 here?
**A.** The IC50 was 0.623 nM.

**Q.** And the IC50 [2]?
**A.** The IC50 was under 0.316 nM.

**Q.** What about the IC50 [3] of the same compound?
**A.** Its IC50 is under 0.316 nM.

**Q.** And the IC50 (curve of first compound, second compound 3.16 µM)?
**A.** The IC50 was under 0.316 nM.

**Q.** What about the IC50 (curve of first compound, second compound 10 µM) of the same compound?
**A.** The IC50 was under 0.316 nM.

**Q.** What about the viability, T/C (second compound 0.1 µM, first compound 0.000316 µM) of the same compound?
**A.** The viability, T/C was 59.2%.

**Q.** What about the viability, T/C (second compound 0.1 µM, first compound 0.001 µM) of the same compound?
**A.** The viability, T/C was 43.4%.

**Q.** What about the viability, T/C (second compound 0.1 µM, first compound 0.00316 µM) of the same compound?
**A.** Its viability, T/C is 26.4%.

**Q.** And the viability, T/C (second compound 0.1 µM, first compound 0.01 µM)?
**A.** Its viability, T/C is 13.7%.

**Q.** And the viability, T/C [4]?
**A.** Its viability, T/C is 8.65%.

**Q.** What about the viability, T/C [5] of the same compound?
**A.** The viability, T/C was 6.5%.

**Q.** And the viability, T/C (second compound 0.316 µM, first compound 0.000316 µM)?
**A.** Its viability, T/C is 32%.

**Q.** What about the viability, T/C (second compound 0.316 µM, first compound 0.001 µM) of the same compound?
**A.** Its viability, T/C is 24.6%.

**Q.** And the viability, T/C (second compound 0.316 µM, first compound 0.00316 µM)?
**A.** The viability, T/C was 19.7%.

**Q.** What about the viability, T/C (second compound 0.316 µM, first compound 0.01 µM) of the same compound?
**A.** The viability, T/C was 9.18%.

**Q.** What about the viability, T/C [6] of the same compound?
**A.** The viability, T/C was 5.66%.

**Q.** What about the viability, T/C [7] of the same compound?
**A.** The viability, T/C was 4.86%.

**Q.** What about the viability, T/C (second compound 1 µM, first compound 0.000316 µM) of the same compound?
**A.** Its viability, T/C is 18.7%.

**Q.** What about the viability, T/C (second compound 1 µM, first compound 0.001 µM) of the same compound?
**A.** Its viability, T/C is 14.1%.

**Q.** What about the viability, T/C (second compound 1 µM, first compound 0.00316 µM) of the same compound?
**A.** The viability, T/C was 12%.

**Q.** And the viability, T/C (second compound 1 µM, first compound 0.01 µM)?
**A.** The viability, T/C was 7.26%.

**Q.** What about the viability, T/C [8] of the same compound?
**A.** The viability, T/C was 4.57%.

**Q.** And the viability, T/C [9]?
**A.** Its viability, T/C is 4.78%.

**Q.** And the viability, T/C (second compound 3.16 µM, first compound 0.000316 µM)?
**A.** The viability, T/C was 14.5%.

**Q.** What about the viability, T/C (second compound 3.16 µM, first compound 0.001 µM) of the same compound?
**A.** The viability, T/C was 12.7%.

**Q.** What about the viability, T/C (second compound 3.16 µM, first compound 0.00316 µM) of the same compound?
**A.** The viability, T/C was 9.97%.

**Q.** What about the viability, T/C (second compound 3.16 µM, first compound 0.01 µM) of the same compound?
**A.** Its viability, T/C is 5.51%.

**Q.** What about the viability, T/C (second compound 3.16 µM, first compound 0.0316 µM) of the same compound?
**A.** Its viability, T/C is 3.82%.

**Q.** And the viability, T/C (second compound 3.16 µM, first compound 0.1 µM)?
**A.** Its viability, T/C is 3.94%.

**Q.** And the viability, T/C (second compound 10 µM, first compound 0.000316 µM)?
**A.** Its viability, T/C is 8.69%.

**Q.** What about the viability, T/C (second compound 10 µM, first compound 0.001 µM) of the same compound?
**A.** Its viability, T/C is 9.03%.

**Q.** What about the viability, T/C (second compound 10 µM, first compound 0.00316 µM) of the same compound?
**A.** The viability, T/C was 6.95%.

**Q.** And the viability, T/C (second compound 10 µM, first compound 0.01 µM)?
**A.** The viability, T/C was 3.56%.

**Q.** What about the viability, T/C (second compound 10 µM, first compound 0.0316 µM) of the same compound?
**A.** The viability, T/C was 2.31%.

**Q.** What about the viability, T/C (second compound 10 µM, first compound 0.1 µM) of the same compound?
**A.** The viability, T/C was 3.23%.

**Q.** What does the source list for CC1(C)CCC(CN2CCN(c3ccc(C(=O)NS(=O)(=O)c4ccc(NCC5CCOCC5)c([N+](=O)[O-])c4)c(Oc4cnc5[nH]ccc5c4)c3)CC2)=C(c2ccc(Cl)cc2)C1 + CCN1CCN(Cc2ccc(Nc3ncc(F)c(-c4cc(F)c5nc(C)n(C(C)C)c5c4)n3)nc2)CC1?
**A.** IC50 (curve of first compound, second compound 0.01 µM): 2540 nM; IC50 (curve of first compound, second compound 0.0316 µM): 2450 nM; IC50 [1]: 722 nM; IC50 [2]: 316 nM; IC50 [3]: < 31.6 nM; viability, T/C (second compound 0.01 µM, first compound 0.0316 µM): 92.7%; viability, T/C (second compound 0.01 µM, first compound 0.1 µM): 96.9%; viability, T/C (second compound 0.01 µM, first compound 0.316 µM): 90%; viability, T/C (second compound 0.01 µM, first compound 1 µM): 71.8%; viability, T/C (second compound 0.01 µM, first compound 3.16 µM): 45.3%; viability, T/C (second compound 0.01 µM, first compound 10 µM): 18.2%; viability, T/C (second compound 0.0316 µM, first compound 0.0316 µM): 78.7%; viability, T/C (second compound 0.0316 µM, first compound 0.1 µM): 74.3%; viability, T/C (second compound 0.0316 µM, first compound 0.316 µM): 79.6%; viability, T/C (second compound 0.0316 µM, first compound 1 µM): 68.5%; viability, T/C (second compound 0.0316 µM, first compound 3.16 µM): 44.7%; viability, T/C (second compound 0.0316 µM, first compound 10 µM): 17.9%; viability, T/C [4]: 60.7%; viability, T/C [5]: 59.2%; viability, T/C (second compound 0.1 µM, first compound 0.316 µM): 55.2%; viability, T/C (second compound 0.1 µM, first compound 1 µM): 48%; viability, T/C (second compound 0.1 µM, first compound 3.16 µM): 34.4%; viability, T/C (second compound 0.1 µM, first compound 10 µM): 14.3%; viability, T/C [6]: 55.8%; viability, T/C [7]: 53.5%; viability, T/C (second compound 0.316 µM, first compound 0.316 µM): 52.7%; viability, T/C (second compound 0.316 µM, first compound 1 µM): 39.9%; viability, T/C (second compound 0.316 µM, first compound 3.16 µM): 31.5%; viability, T/C (second compound 0.316 µM, first compound 10 µM): 10.4%; viability, T/C [8]: 44.5%; viability, T/C [9]: 47.3%; viability, T/C (second compound 1 µM, first compound 0.316 µM): 42.3%; viability, T/C (second compound 1 µM, first compound 1 µM): 38.3%; viability, T/C (second compound 1 µM, first compound 3.16 µM): 31.9%; viability, T/C (second compound 1 µM, first compound 10 µM): 12.9%

**Q.** How did the viability, T/C (compound 0.000316 µM) turn out when Cn1ncnc1[C@H]1c2n[nH]c(=O)c3cc(F)cc(c23)N[C@@H]1c1ccc(F)cc1 was run?
**A.** Its viability, T/C is 108% and 97.8%.

**Q.** And the viability, T/C (compound 0.001 µM)?
**A.** The viability, T/C was 101% and 102%.

**Q.** And the viability, T/C (compound 0.00316 µM)?
**A.** Its viability, T/C is 101% and 98.3%.

**Q.** What about the viability, T/C (compound 0.01 µM) of the same compound?
**A.** The viability, T/C was 98.5% and 88.4%.

**Q.** And the viability, T/C (compound 0.0316 µM)?
**A.** The viability, T/C was 87.8% and 86.8%.

**Q.** And the viability, T/C (compound 0.1 µM)?
**A.** Its viability, T/C is 73.5% and 68.5%.

**Q.** And the IC50 (curve of compound)?
**A.** The IC50 was over 100 nM.
